# In patent publication EP0106571A2, “Prophylactic substance or composition” (priority 1982, dated 1984):
# Where two headings read alike, the source gives them in different places.
# How the values were obtained:
# [1] = system: human cancer cells; experiment: Proliferation suppressive effect of prostaglandins (statement, no method); assay type: cell-based; conditions: compared with PGEI; no conditions given
# [2] = system: Human osteogenic sarcoma cells; experiment: Colony growth over three weeks with fatty acids or prostaglandins, Amidoschwarz stain; assay type: cell-based; conditions: for colonies in supplemented cultures: 20 µg/ml of medium added every second day, 500, 1,000 and 2,000 cell density cultures
# Experimental: Human osteogenic sarcoma cells were seeded into 50 ml Greiner plastic flasks and maintained exactly as explained in Example 4.
# At the end of three weeks the culture flasks were stained with a 0.1% Amidoschwarz stain solution.
# [3] = system: BL6 mouse melanoma cells; conditions: GLA doses above 7 µg/ml, single dose, 7 days, plateau of the curve
# Experimental: (§1) Thus each culture set comprised 13 separate experiments. […] Each set of dosages was duplicated for both cell lines. Thus, a total of 280 separate cultures were used for these determinations. For statistical treatment an average value of each duplicate was used as n = I. • (i) Growth Curves Protocol: The cells were seeded in a standard growth medium (McCoys 5A medium) from stock cultures into Greiner 50 ml plastic flasks at subconfluent densities ranging from I x 10^5 cells/flask.
# (§2) These cultures flasks were incubated in a humidified atmosphere of 5% C02, 95% air at 37°C for 7 days. After this period cell counts and viabilities were determined, the latter by trypan blue dye exclusion.
# (§3) Data Reduction and Statistical Analyses: Using the values of cell counts obtained as described above, the difference of each cell count from its control was expressed as a perecentage of the control. As the growth curves were repeated several times for each dose for both normal and cancer cells, the mean value and standard error was determined for each dose. […] For the purpose of presentation these percentage differences are expressed as the percentage reduction of growth rate (-GR%).
# [4] = system: MDBK bovine kidney cells; conditions: any of the GLA doses (0.5 to 10 µg/ml), 7 days
# Experimental: as §1, §2, §3
# [5] = system: MG63 Human osteogenic sarcoma cells; experiment: Colony formation after 7 days with two additions of fatty acid; assay type: cell-based; conditions: for suppressive action on proliferation and colony formation: dose series 5 to 100 µg/ml; for cell growth and colony formation: levels of supplementation above 40 µg/ml culture medium; for cells or colonies found on microscopic examination: supplementation levels between 40 and 100 µg/ml; for proliferation suppressive action: higher levels of supplementation, 80 and 100µg/ml
# Experimental: MG63 Human osteogenic sarcoma cells were seeded in culture flasks as described in Examples 4 and 5. 2,000 cells were seeded in each flask. Duplicate sets of flasks were used for each of the fatty acids tested. The following fatty acids dissolved in standard growth medium were added to the cells in culture, after allowing 2 days for cell attachment, and again after a further 3 days. Each culture therefore had only 2 additions of the relevant fatty acid. The cells were stained and examined at the end of 7 days in culture: • 1. Culture medium only - control. • 2. 5, 10, 20, 40, 60, 80 and 100µg oleic acid respectively /ml culture medium. […] 5; 10, 20, 40, 60, 80 and 100µg LA respectively /ml culture medium. • 4. 5, 10, 20, 40, 60, 80 and […] ALA respectively ./ml culture. medium. • 5. 5, 10, 20, 40, 60, 80 and 100µg/ml AA respectively /ml culture medium. • 6. 5, 10, 20, 40, 60, 80 and 100µg/ml EPA respectively /ml culture medium. • ..7.
# [6] = system: Oesophageal carcinoma cells; conditions: 10 µg GLA per day for six days; for Cell count (x 10^6) + GLA Mean: Oesophageal Carcinoma, seeding density 0,14, n = 4
# Text: (§4) Cells: MG63. osteoid-sarcoma cells were obtained from Flow Laboratories. Oesophageal carcinoma cells were obtained from Prof. J. Alexander of the Department of Microbiology at Medunsa, South Africa. Control benign bovine kidney cells (MDBK) were from the same stock that were used in the previous examples.
# [7] = system: benign bovine kidney cells (MDBK); conditions: for Cell count (x 10^6) + GLA Mean: MDBK, seeding density 0,3, daily GLA, n = 4
# Text: as §4
# [8] = system: MG63 osteoid-sarcoma cells; conditions: for Cell count (x 10^6) + GLA Mean: MG63, seeding density 0,3, daily GLA, n = 4
# Text: as §4
# [9] = system: BL6 mouse melanoma cells; experiment: cells
# Experimental: as §1
# Plates were incubated in a 5% C02 humidified atmosphere at 37 °C. For the final 24 hours, 0.4 µCl of [6^-3H]-thymidine or I µCl of L-[methyl -^3H] -methionine (New England Nuclear, Boston, Mass) was added to each incubation mixture on the micrplate. The cells were then collected using a Skatron automatic harvester onto glass fibre reinforced resin filters. The filters were dried and dissolved in 10 ml Picofluor ^TM30 (Packard). The [6-^3H] -thymidine incorporation into DNA and the L-[methyl-^3H] -methionine incorporation into proteins was counted on a Packard Tri-Carb scintillation counter.
# [10] = system: BL6 mouse melanoma cells; conditions: GLA 20 µg/ml daily for two weeks
# Experimental: Only 20µI of the sodium carbonate vehicle was added to control flasks.
# Malignant BL6 mouse melanoma cells were maintained in Griener plastic flasks (Labortechnik) containing 10% fetal calf serum (Flor Laboratories) and antibiotics. Stock cultures were refed twice weekly and were subcultured at. weekly intervals or sooner if required. The BL6 mouse melanoma cells were supplied by Dr. C. Albrecht, Department of Pharmacology, University of Stellenbosch, South Africa.
# Duplicates were set up for the three densities.
# The culture flasks were incubated in a humidified atmosphere of 5% C02, 95% air at 37°C. At the end of the two weeks period the culture flasks were stained using a 0.1% Amidoschwarz stain solution.
# [11] = system: human hepatoma cells; experiment: cells; conditions: for inhibition at 20 µg/mL: Homo sapiens, read-out: Reduction in growth rate (%), daily GLA 20 µg/ml; for GLA supplemented cell number (x10^4) Mean: daily GLA 20 µg/ml, n = 4
# Experimental: To control flasks only 20µl of the sodium carbonate vehicle was added.
# Cells: Cells of the human primary carcinoma of the liver line were provided by Dr. J.J. Alexander of the Division of Virology, Department of Microbiology, Medical University of South Africa. These cells were maintained in Grenier plastic flasks in McCoys 5A medium as described in Example I.
# The cells were seeded in the standard growth medium from stock cultures into Greiner 50 ml plastic flasks at subconfluent densities ranging from 2 x 10^5 to 3 x 10^5 cells per flask. […] These culture flasks were included in a humidified atmosphere of 5% CO2, 95% air at 37°. At the end of each experiment the detached, dead cells were discarded with the culture medium. The living attached cells were trypsinised and then counted using a Coulter counter. Cell viability was checked by trypan blue dye exclusion. In addition, the culture flasks were viewed and photographed daily under a Nikon diaphot inverted phase microscope.
# The cells were counted after 4 days in culture.
# [12] = 5 µg/ml of medium added every second day
# [13] = 20 µg/ml of medium added every second day
smiles,measurement,setting,value
CCCCC[C@H](O)/C=C/[C@@H]1[C@@H](CCCCCCC(=O)O)[C@@H](O)C[C@H]1O [PGF1a],proliferation suppressive effect on human cancer cells,[1],no effect at all
same,growth achieved relative to control cultures,[2]; [12],about the same growth as the control cultures
same,growth suppressive effect on the cancer cells in culture (summary),[2]; [12],no effect at all
CCCCC[C@H](O)/C=C/[C@@H]1[C@@H](C/C=C\CCCC(=O)O)[C@@H](O)C[C@H]1O [PGF2a],proliferation suppressive effect on human cancer cells,[1],no effect at all
"CCCCC/C=C\C/C=C\C/C=C\CCCCC(=O)O [GLA, gamma linolenic acid]",percentage reduction of growth rate (-GR%),[3],about 70%
same,response of growth rate to GLA,[4],no apparent response
same,suppressive action on proliferation and colony formation,[5]; 2 additions,"almost equal, progressive, suppressive action"
same,cell growth and colony formation,[5]; 2 additions,completely suppressed
same,cells or colonies found on microscopic examination,[5],Not a single cell or colony of cells could be found
same,Cell count (x 10^6) + GLA Mean,[6]; day 2,"0,14 x 10^6"
same,Cell count (x 10^6) + GLA Mean,[6]; day 3,"0,22 x 10^6"
same,Cell count (x 10^6) + GLA Mean,[6]; day 4,"0,31 x 10^6"
same,Cell count (x 10^6) + GLA Mean,[6]; day 5,"0,68 x 10^6"
same,Cell count (x 10^6) + GLA Mean,[6]; day 6,"0,63 x 10^6"
same,Cell count (x 10^6) + GLA Mean,[6]; day 7,"1,82 x 10^6"
same,Cell count (x 10^6) + GLA Mean,[6]; day 8,2.04 x 10^6
same,growth suppressive effect,"[6]; oesophageal carcinoma cells, end of the eight day period, 11520 min",69%
same,mean number of GLA supplemented cells compared with unsupplemented cells,"[7]; MDBK cells, end of the seven day period",exceed
same,Cell count (x 10^6) + GLA Mean,[7]; day 2,"0,43 x 10^6"
same,Cell count (x 10^6) + GLA Mean,[7]; day 3,"0,70 x 10^6"
same,Cell count (x 10^6) + GLA Mean,[7]; day 6,"1,53 x 10^6"
same,Cell count (x 10^6) + GLA Mean,[7]; day 7,"1,81 x 10^6"
same,Cell count (x 10^6) + GLA Mean,[8]; day 2,"0,19 x 10^6"
same,Cell count (x 10^6) + GLA Mean,[8]; day 3,"0,31 x 10^6"
same,Cell count (x 10^6) + GLA Mean,[8]; day 4,"0,48 x 10^6"
same,growth suppressive effect,"[8]; MG63 cells, daily GLA supplementation, over seven days, versus untreated MG63 cells, 10080 min",76%
same,inhibition at 10 µg/mL,[9]; read-out: reduction in methionine uptake,58.9%
same,inhibition at 10 µg/mL,[9]; read-out: reduction in thymidine uptake,59.1%
same,growth suppressive effect on the cancer cells in culture (summary),[2]; [13],complete growth suppressive effect
same,colonies in supplemented cultures,[2],completely devoid of any colonies
same,growth and proliferation,[10],completely suppressed
same,colonies observed,"[10]; 500, 1,000 or 2,000 cells seeded per flask",not a single colony
same,inhibition at 20 µg/mL,"[11]; 24 h, day 1, versus control flasks (negative = more cells than control)",-44%
same,inhibition at 20 µg/mL,"[11]; 48 h, day 2, versus control flasks",66%
same,inhibition at 20 µg/mL,"[11]; 72 h, day 3, versus control flasks",78%
same,inhibition at 20 µg/mL,"[11]; 96 h, day 4 Run 1, versus control flasks",87%
same,inhibition at 20 µg/mL,"[11]; 96 h, day 4 Run 2, versus control flasks",78%
same,GLA supplemented cell number (x10^4) Mean,[11]; day 1,"8,12 x10^4"
same,GLA supplemented cell number (x10^4) Mean,[11]; day 2,"3,79 x10^4"
same,GLA supplemented cell number (x10^4) Mean,[11]; day 3,"3,35 x10^4"
same,GLA supplemented cell number (x10^4) Mean,[11]; day 4 Run 1,"2,96 x10^4"
same,GLA supplemented cell number (x10^4) Mean,[11]; day 4 Run 2,"7,25 x10^4"
same,difference between growth rates of GLA supplemented and control cells,"[11]; single dose of GLA 20 µg/ml on day 1, after four days",no significant difference
same,cell count,"[11]; single dose of GLA 20 µg/ml on day 1, counted after four days, n = 8, spread printed ± 4.85",19.81 x 104
"CC/C=C\C/C=C\C/C=C\CCCCCCCC(=O)O [ALA, a-linolenic acid, reference compound]",proliferation suppressive action,[5]; 2 additions,definite proliferation suppressive action
"CCCCCCCC/C=C\CCCCCCCC(=O)O [OA, Oleic acid]",densities of colonies,"[5]; all levels of supplementation between 5 and 100µg/ml, 2 additions, compared with culture medium only",equal densities of colonies
same,growth achieved relative to control cultures,[2]; [13],about the same growth as control cultures
same,growth suppressive effect on the cancer cells in culture (summary),[2]; [13],no suppressive effect
"CCCCC/C=C\C/C=C\CCCCCCCC(=O)O [LA, linoleic acid]",proliferation suppressive action,[5]; 2 additions,definite proliferation suppressive action
same,growth suppressive effect on the cancer cells in culture (summary),[2]; [13],some growth suppressive effect
same,activity at 20 µg/mL,"[2]; Homo sapiens, 504 h, 20 µg/ml of medium added every second day, read-out: growth achieved relative to control cultures",~75%
"CCCCC/C=C\C/C=C\C/C=C\C/C=C\CCCC(=O)O [AA, arachidonic acid]",suppressive action on proliferation and colony formation,[5]; 2 additions,"almost equal, progressive, suppressive action"
same,cell growth and colony formation,[5]; 2 additions,completely suppressed
same,cells or colonies found on microscopic examination,[5],Not a single cell or colony of cells could be found
same,growth suppressive effect on the cancer cells in culture (summary),[2]; [13],complete growth suppressive effect
same,colonies in supplemented cultures,[2],completely devoid of any colonies
CCCCC[C@H](O)/C=C/[C@H]1C=CC(=O)[C@@H]1CCCCCCC(=O)O [PGA1],growth suppressive effect on the cancer cells in culture (summary),[2]; [12],more pronounced growth suppressive effect
"CCCCC[C@H](O)/C=C/[C@H]1[C@H](O)CC(=O)[C@@H]1CCCCCCC(=O)O [PGE1, prostaglandin E 1]",growth suppressive effect on the cancer cells in culture (summary),[2]; [12],more pronounced growth suppressive effect
same,activity at 5 µg/mL,"[2]; Homo sapiens, 504 h, 5 µg/ml of medium added every second day, read-out: growth achieved relative to control cultures",~25%
